Legend:
PI3K delta = target: T1, PI3K delta (Homo sapiens, UniProt O00329); test: Enzymatic PI3K delta isoform inhibition (lipid kinase activity, Kinase-Glo); format: biochemical; details: enzymatic assay
T1 construct: for the full-length p110-d subunit are generated and fused by overlapping PCR; His tag (C); made in house; host or cells: baculovirus; Tn5 (Trichoplusia ni) or TiniPro insect cells
Method: (§1) In a more preferred assay, the kinase reaction is performed in a final volume of 10 μl per well of a low volume non-binding CORNING, 384 well black plate (Cat. No. #3676). The final concentrations of ATP and phosphatidyl inositol (PI) in the assay are 1 μM and 10 μg/mL, respectively. The reaction is started by the addition of ATP.
(§2) The components of the assay are added per well as follows:
(§3) 50 nl test compounds in 90% DMSO per well, in columns 1-20, 8 concentrations (1/3 and 1/3.33 serial dilution step) in single. • Low control: 50 nl of 90% DMSO in half the wells of columns 23-24 (0.45% in final). • High control: 50 nl of reference compound (e.g. compound of Example 7 in WO 2006/122806) in the other half of columns 23-24 (2.5 μM in final). • Standard: 50 nl of reference compound as just mentioned diluted as the test compounds in columns 21-22. • 20 mL ‘buffer’ are prepared per assay: • 200 μl of 1M TRIS HCl pH7.5 (10 mM in final) • 60 μl of 1M MgCl2 (3 mM in final) • 500 μl of 2M NaCl (50 mM in final) • 100 μl of 10% CHAPS (0.05% in final) • 200 μl of 100 mM DTT (1 mM in final) • 18.94 mL of nanopure water • 10 mL ‘PI’ are prepared per assay: • 200 μl of 1 mg/mL 1-alpha-Phosphatidylinositol (Liver Bovine, Avanti Polar Lipids Cat. No. 840042C MW=909.12) prepared in 3% OctylGlucoside (10 μg/mL in final) • 9.8 mL of ‘buffer’ • 10 mL ‘ATP’ are prepared per assay: • 6.7 μl of 3 mM stock of ATP giving a final concentration of 1 μM per well • 10 mL of ‘buffer’ • 2.5 mL of each PI3K construct are prepared per assay in ‘PI’ with the following final concentration: • 10 nM PI3K alfa EMV B1075 • 25 nM beta EMV BV949 • 10 nM delta EMV BV1060 • 150 nM gamma EMV BV950 • 5 μl of ‘PI/PI3K’ are added per well. • 5 μl ‘ATP’ are added per well to start the reaction. • The plates are then incubated at room temperature for 60 minutes (alfa, beta, delta) or 120 minutes (gamma). • The reaction is terminated by the addition of 10 μl Kinase-Glo (Promega Cat. No. #6714). • The assay plates are read after 10 minutes in Synergy 2 reader (BioTek, Vermont USA) with an integration time of 100 milliseconds and sensitivity set to 191. • Output: The High control is around 60'000 counts and the Low control is 30'000 or lower • This luminescence assay gives a useful Z′ ratio between 0.4 and 0.7
(§4) IC50 is determined by a four parameter curve fitting routine that comes along with “excel fit”. A four parameter logistic equation is used to calculate IC50 values (IDBS XLfit) of the percentage inhibition of each compound at 8 concentrations (usually 10, 3.0, 1.0, 0.3, 0.1, 0.030, 0.010 and 0.003 μM). Alternatively, IC50 values are calculated using idbsXLfit model 204, which is a 4 parameter logistic model.
(§5) Yet alternatively, for an ATP depletion assay, compounds of the formula I to be tested are dissolved in DMSO and directly distributed into a white 384-well plate at 0.5 μl per well. To start the reaction, 10 μl of 10 nM PI3 kinase and 5 μg/mL 1-alpha-phosphatidylinositol (PI) are added into each well followed by 10 μl of 2 μM ATP. The reaction is performed until approx 50% of the ATP is depleted, and then stopped by the addition of 20 μl of Kinase-Glo solution (Promega Corp., Madison, Wis., USA). The stopped reaction is incubated for 5 minutes and the remaining ATP is then detected via luminescence. IC50 values are then determined.

PI3K alpha = target: T2, PI3K alpha (Homo sapiens, UniProt P42336); test: Enzymatic PI3K alpha isoform inhibition (lipid kinase activity, Kinase-Glo); format: biochemical; details: enzymatic assay
T2 construct: His tag (C); made in house; host or cells: baculovirus; Tn5 (Trichoplusia ni) or TiniPro insect cells
Method: The kinase reaction is performed in a final volume of 50 μl per well of a half area COSTAR, 96 well plate. The final concentrations of ATP and phosphatidyl inositol in the assay are 5 μM and 6 μg/mL, respectively. The reaction is started by the addition of PI3 kinase, e.g. PI3 kinase δ.
as §1, §2, §3, §4, §5

T2 sequence (P42336 with tags, fused parts or gaps limits assumed): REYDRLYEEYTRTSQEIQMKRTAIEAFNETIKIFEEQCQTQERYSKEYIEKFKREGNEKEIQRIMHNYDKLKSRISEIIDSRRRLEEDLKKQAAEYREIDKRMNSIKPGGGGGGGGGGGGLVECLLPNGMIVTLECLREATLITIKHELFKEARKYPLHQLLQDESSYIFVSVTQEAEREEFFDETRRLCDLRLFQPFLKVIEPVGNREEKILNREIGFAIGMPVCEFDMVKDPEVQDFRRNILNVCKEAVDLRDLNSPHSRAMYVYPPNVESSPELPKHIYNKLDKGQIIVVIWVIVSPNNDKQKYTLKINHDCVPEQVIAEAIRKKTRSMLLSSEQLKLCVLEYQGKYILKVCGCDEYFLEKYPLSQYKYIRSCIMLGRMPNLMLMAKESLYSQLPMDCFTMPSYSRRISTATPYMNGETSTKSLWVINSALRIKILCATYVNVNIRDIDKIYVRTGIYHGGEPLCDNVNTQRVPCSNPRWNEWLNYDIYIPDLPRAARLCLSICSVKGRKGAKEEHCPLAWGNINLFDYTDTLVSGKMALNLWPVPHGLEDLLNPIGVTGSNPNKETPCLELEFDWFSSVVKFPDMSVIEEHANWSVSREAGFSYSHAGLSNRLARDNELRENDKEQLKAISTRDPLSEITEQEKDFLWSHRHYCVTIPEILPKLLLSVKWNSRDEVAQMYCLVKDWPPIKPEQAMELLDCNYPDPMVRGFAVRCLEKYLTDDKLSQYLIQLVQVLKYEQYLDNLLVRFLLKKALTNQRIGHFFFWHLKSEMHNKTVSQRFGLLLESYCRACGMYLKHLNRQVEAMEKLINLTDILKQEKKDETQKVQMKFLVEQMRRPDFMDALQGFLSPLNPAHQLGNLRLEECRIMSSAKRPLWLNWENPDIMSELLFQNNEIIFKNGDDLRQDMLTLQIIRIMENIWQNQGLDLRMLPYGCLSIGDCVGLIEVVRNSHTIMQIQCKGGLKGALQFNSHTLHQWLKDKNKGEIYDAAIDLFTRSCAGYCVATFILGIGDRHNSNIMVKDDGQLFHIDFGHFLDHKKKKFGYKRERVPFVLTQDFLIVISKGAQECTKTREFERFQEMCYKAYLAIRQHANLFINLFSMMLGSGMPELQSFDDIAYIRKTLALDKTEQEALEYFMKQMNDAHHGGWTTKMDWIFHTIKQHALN
T1 sequence (O00329 with tags, fused parts or gaps limits assumed): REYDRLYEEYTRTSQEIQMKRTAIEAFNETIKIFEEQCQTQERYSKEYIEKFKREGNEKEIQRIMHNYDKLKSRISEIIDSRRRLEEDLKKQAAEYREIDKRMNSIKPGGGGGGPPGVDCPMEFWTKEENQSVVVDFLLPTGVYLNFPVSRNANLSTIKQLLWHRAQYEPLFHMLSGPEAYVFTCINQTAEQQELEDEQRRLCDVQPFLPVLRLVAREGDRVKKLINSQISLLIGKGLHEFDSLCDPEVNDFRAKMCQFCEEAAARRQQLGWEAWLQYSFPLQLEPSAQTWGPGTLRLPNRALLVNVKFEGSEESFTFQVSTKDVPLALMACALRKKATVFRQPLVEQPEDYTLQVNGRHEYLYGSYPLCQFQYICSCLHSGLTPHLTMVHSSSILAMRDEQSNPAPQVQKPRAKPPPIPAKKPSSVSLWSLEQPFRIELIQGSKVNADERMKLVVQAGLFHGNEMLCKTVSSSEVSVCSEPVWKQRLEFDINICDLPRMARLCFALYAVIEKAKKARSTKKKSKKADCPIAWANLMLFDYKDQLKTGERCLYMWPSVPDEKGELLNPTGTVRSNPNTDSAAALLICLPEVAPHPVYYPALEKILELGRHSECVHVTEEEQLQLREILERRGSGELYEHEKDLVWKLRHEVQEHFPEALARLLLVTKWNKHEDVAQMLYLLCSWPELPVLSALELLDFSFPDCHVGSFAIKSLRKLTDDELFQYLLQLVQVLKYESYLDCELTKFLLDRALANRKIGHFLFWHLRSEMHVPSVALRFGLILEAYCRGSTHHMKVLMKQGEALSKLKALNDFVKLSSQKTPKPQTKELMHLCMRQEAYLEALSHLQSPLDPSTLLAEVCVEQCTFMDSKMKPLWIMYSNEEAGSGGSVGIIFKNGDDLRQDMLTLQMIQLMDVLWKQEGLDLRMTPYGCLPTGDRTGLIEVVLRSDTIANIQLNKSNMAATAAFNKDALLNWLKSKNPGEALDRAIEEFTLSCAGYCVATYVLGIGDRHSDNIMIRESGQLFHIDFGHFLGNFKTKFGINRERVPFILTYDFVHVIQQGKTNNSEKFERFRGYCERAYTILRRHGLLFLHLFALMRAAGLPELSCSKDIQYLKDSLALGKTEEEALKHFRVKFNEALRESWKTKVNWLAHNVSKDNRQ

Row | Compound | IC50 (PI3K delta) [nM] | IC50 (PI3K alpha) [nM]
1 | CS(=O)(=O)c1ncc(-c2ccnc3ccc(O[C@H]4CCN(C(=O)C5CCOCC5)C4)cc23)cc1Cl [Example A28, {(S)-3-[4-(5-Chloro-6-methanesulfonyl-pyridin-3-yl)-quinolin-6-yloxy]-pyrrolidin-1-yl}-(tetrahydro-pyran-4-yl)-methanone] | 14 | 1390
2 | COc1ncc(-c2ccnc3ccc(O[C@H]4CCN(C(=O)C5CCS(=O)(=O)CC5)C4)cc23)cc1C#N [Example A22, 5-{6-[(S)-1-(1,1-Dioxo-hexahydro-1lambda*6*-thiopyran-4-carbonyl)-pyrrolidin-3-yloxy]-quinolin-4-yl}-2-methoxy-nicotinonitrile] | 8 | 364
3 | CC(=O)N1CC[C@@H](C(=O)N2CC[C@H](Oc3ccc4nccc(-c5cnc(OC(F)F)c(C)c5)c4c3C)C2)C1 [Example B7, 1-((R)-3-{(S)-3-[4-(6-Difluoromethoxy-5-methyl-pyridin-3-yl)-5-methyl-quinolin-6-yloxy]-pyrrolidine-1-carbonyl}-pyrrolidin-1-yl)-ethanone] | 20 | 869
4 | Cc1cc(-c2ccnc3ccc(O[C@H]4CCN(C(=O)C5CCOCC5)C4)c(C)c23)cnc1S(C)(=O)=O [Example B5, {(S)-3-[4-(6-Methanesulfonyl-5-methyl-pyridin-3-yl)-5-methyl-quinolin-6-yloxy]-pyrrolidin-1-yl}-(tetrahydro-pyran-4-yl)-methanone] | 11 | 664
5 | COc1ncc(-c2ccnc3ccc(O[C@H]4CCN(C(=O)C5CCS(=O)(=O)CC5)C4)c(C)c23)cc1CF [Example B6, (1,1-Dioxo-hexahydro-1lambda*6*-thiopyran-4-yl)-{(S)-3-[4-(5-fluoromethyl-6-methoxy-pyridin-3-yl)-5-methyl-quinolin-6-yloxy]-pyrrolidin-1-yl}-methanone] | 12 | 294
6 | CCC(=O)N1CC[C@H](Oc2ccc3nccc(-c4cnc(OC)c(C)c4)c3c2)C1 [Example A2, 1-{(S)-3-[4-(6-Methoxy-5-methyl-pyridin-3-yl)-quinolin-6-yloxy]-pyrrolidin-1-yl}-propan-1-one] | < 3 | 264
7 | COc1ncc(-c2ccnc3ccc(O[C@H]4CCN(C(=O)c5ccc(=O)[nH]c5)C4)cc23)cc1C [Example A5, 5-{(S)-3-[4-(6-Methoxy-5-methyl-pyridin-3-yl)-quinolin-6-yloxy]-pyrrolidine-1-carbonyl}-1H-pyridin-2-one] | < 3 | 231
8 | CCC(=O)N1CC[C@H](Oc2ccc3nccc(-c4cnc(OC)c(C#N)c4)c3c2)C1 [Example A18, 2-Methoxy-5-[6-((S)-1-propionyl-pyrrolidin-3-yloxy)-quinolin-4-yl]-nicotinonitrile] | 7 | 613
9 | Cc1cc(-c2ccnc3ccc(O[C@H]4CCN(C(=O)C(C)C)C4)cc23)cnc1S(C)(=O)=O [Example A36, 1-{(S)-3-[4-(6-Methanesulfonyl-5-methyl-pyridin-3-yl)-quinolin-6-yloxy]-pyrrolidin-1-yl}-2-methyl-propan-1-one] | 39 | 1570
10 | COc1ncc(-c2ccnc3ccc(O[C@H]4CCN(C(=O)C5CCOC5)C4)cc23)cc1C#N (stereo partly drawn) [Example A12, 2-Methoxy-5-{6-[(S)-1-((R,S)-tetrahydro-furan-3-carbonyl)-pyrrolidin-3-yloxy]-quinolin-4-yl}-nicotinonitrile] | 5 | 305
11 | Cc1cc(-c2ccnc3ccc(O[C@H]4CCN(C(=O)C5CCOCC5)C4)cc23)cnc1S(C)(=O)=O [Example A33, {(S)-3-[4-(6-Methanesulfonyl-5-methyl-pyridin-3-yl)-quinolin-6-yloxy]-pyrrolidin-1-yl}-(tetrahydro-pyran-4-yl)-methanone] | 25 | 3370
12 | CCC(=O)N1CC[C@H](Oc2ccc3nccc(-c4cnc(N)c(C(F)(F)F)c4)c3c2)C1 [Example A34, 1-{(S)-3-[4-(6-Amino-5-trifluoromethyl-pyridin-3-yl)-quinolin-6-yloxy]-pyrrolidin-1-yl}-propan-1-one] | 27 | 35
13 | CS(=O)(=O)c1ncc(-c2ccnc3ccc(O[C@H]4CCN(C(=O)C5CCOCC5)C4)cc23)cc1C(F)F [Example A17, {(S)-3-[4-(5-Difluoromethyl-6-methanesulfonyl-pyridin-3-yl)-quinolin-6-yloxy]-pyrrolidin-1-yl}-(tetrahydro-pyran-4-yl)-methanone] | 7 | 341

The next lines start with the values.

Row | IC50 (PI3K delta) [nM] | IC50 (PI3K alpha) [nM] | Compound
14 | 7 | 207 | COc1ncc(-c2ccnc3ccc(O[C@H]4CCN(C(=O)C5CCN(C(C)=O)CC5)C4)cc23)cc1C(F)(F)F [Example A16, 1-(4-{(S)-3-[4-(6-Methoxy-5-trifluoromethyl-pyridin-3-yl)-quinolin-6-yloxy]-pyrrolidine-1-carbonyl}-piperidin-1-yl) ethanone]
15 | 29 | 1230 | CC(=O)N1CC[C@@H](C(=O)N2CC[C@H](Oc3ccc4nccc(-c5cnc(OC(F)F)c(C)c5)c4c3)C2)C1 [Example A35, 1-((R)-3-{(S)-3-[4-(6-Difluoromethoxy-5-methyl-pyridin-3-yl)-quinolin-6-yloxy]-pyrrolidine-1-carbonyl}-pyrrolidin-1-yl)-ethanone]
16 | 13 | 121 | COc1ncc(-c2ccnc3ccc(O[C@H]4CCN(C(=O)c5cn(C)cn5)C4)cc23)cc1C(F)(F)F [Example A26, {(S)-3-[4-(6-Methoxy-5-trifluoromethyl-pyridin-3-yl)-quinolin-6-yloxy]-pyrrolidin-1-yl}-(1-methyl-1H-imidazol-4-yl)-methanone]
17 | 7 | 822 | CC(=O)N1CC[C@@H](C(=O)N2CC[C@H](Oc3ccc4nccc(-c5cnc(S(C)(=O)=O)c(C)c5)c4c3)C2)C1 [Example A21, 1-((R)-3-{(S)-3-[4-(6-Methanesulfonyl-5-methyl-pyridin-3-yl)-quinolin-6-yloxy]-pyrrolidine-1-carbonyl}-pyrrolidin-1-yl)-ethanone]
18 | 3 | 426 | COc1ncc(-c2ccnc3ccc(O[C@H]4CCN(C(=O)C5CCOCC5)C4)cc23)cc1C#N [Example A3, 2-Methoxy-5-{6-[(S)-1-(tetrahydro-pyran-4-carbonyl)-pyrrolidin-3-yloxy]-quinolin-4-yl}-nicotinonitrile]
19 | 3 | 128 | COc1ncc(-c2ccnc3ccc(O[C@H]4CCN(C(=O)C5CCS(=O)(=O)CC5)C4)cc23)cc1F [Example A4, (1,1-Dioxo-hexahydro-1lambda*6*-thiopyran-4-yl)-{(S)-3-[4-(5-fluoro-6-methoxy-pyridin-3-yl)-quinolin-6-yloxy]-pyrrolidin-1-yl}-methanone]
20 | 4 | 96 | COc1ncc(-c2ccnc3ccc(O[C@H]4CCN(C(=O)C5CCOCC5)C4)cc23)cc1C(F)(F)F [Example A7, {(S)-3-[4-(6-Methoxy-5-trifluoromethyl-pyridin-3-yl)-quinolin-6-yloxy]-pyrrolidin-1-yl}-(tetrahydro-pyran-4-yl)-methanone]

Reference: patent US20150148377A1, “Quinoline Derivatives” (NOVARTIS AG, priority 2011, published 2015)
